Data on 8 compounds can be found in patent US11065234B2, “Estrogen receptor modulators” (Recurium IP Holdings, LLC, priority 2016, dated 2021).

Series [1] in a line: Pharmacokinetic Determination (Rat PK). The class given is in vivo. To be noted: plasma, female SD rats; for Vd: read-out: Vdss; for bioavailability: PO 10.0 mg/kg vs IV 3.0 mg/kg. On the procedure:
Example D Pharmacokinetic Determination
Grouping female SD rats weighing 200-300 g randomly to two groups; one group was administered with test compound at a dose of 3.0 mg/kg by intravenous injection, the other group was administered with test compound at a dose of 10.0 mg/kg by oral. The formulation for IV groups is DMSO/PEG400/150 mM glycine (pH 9) (5/10/85) and the formulation for PO groups is PEG400/PVP/Tween 80/0.5% CMC in water (9/0.5/0.5/90). After administering, blood samples of intravenous injection group were collected at time points of predose, 0.0833, 0.25, 0.5, 1, 2, 4, 8, 12 and 24 h; blood samples of oral group were collected at time points of predose, 0.25, 0.5, 1, 2, 4, 8, 12, and 24 h. Standard curve was plotted based on concentrations of the samples in a suitable range, the concentrations of test compounds in plasma samples were determined by using LC-MS/MS. Pharmacokinetic parameters were calculated according to drug concentration-time curve using a noncompartmental method by WinNonLin (Phoenix™, version 6.1) or other similar software.

The next series deals with T1, ERα (Homo sapiens, UniProt P03372).
T1 construct: endogenous in cells; host or cells: MCF-7
T1 sequence (P03372 1-595): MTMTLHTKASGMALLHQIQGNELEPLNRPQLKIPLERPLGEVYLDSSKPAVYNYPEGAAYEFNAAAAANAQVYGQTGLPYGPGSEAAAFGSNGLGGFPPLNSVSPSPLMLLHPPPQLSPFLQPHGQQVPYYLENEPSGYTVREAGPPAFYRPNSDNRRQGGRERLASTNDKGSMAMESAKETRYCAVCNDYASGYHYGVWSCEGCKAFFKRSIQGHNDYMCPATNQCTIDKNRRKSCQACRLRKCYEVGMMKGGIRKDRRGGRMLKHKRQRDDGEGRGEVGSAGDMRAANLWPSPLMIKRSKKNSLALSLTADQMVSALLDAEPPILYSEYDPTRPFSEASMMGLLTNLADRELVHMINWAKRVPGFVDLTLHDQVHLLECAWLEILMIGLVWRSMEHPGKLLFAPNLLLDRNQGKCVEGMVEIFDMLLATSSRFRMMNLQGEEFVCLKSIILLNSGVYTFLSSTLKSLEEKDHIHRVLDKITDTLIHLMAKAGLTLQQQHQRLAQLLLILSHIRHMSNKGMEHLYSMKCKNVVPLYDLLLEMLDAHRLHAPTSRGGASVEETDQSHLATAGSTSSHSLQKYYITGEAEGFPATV
Put plainly: ER Degradation Determination by Western Blot. The series is classed as cell-based. Conditions: MCF-7 cells, 10 μM, 18-24 hours. As for the experimental part: ER Degradation Determination by Western Blot
MCF-7 cells are plated at 0.3 million cells/mL (3 mL/well) in 6-well plates in experiment media and incubated at 37° C., 5% CO2 for […]. Next day, 10× solution of compounds are made in DMSO and added the solution to the cells to achieve a final concentration of 10 μM. A DMSO control is included to enable a determination of the relative efficacy of test compounds. Fulvestrant is used as a positive control for ER-alpha degradation, and 4-OH tamoxifen as a control for receptor stabilization. After incubating cells with compounds for 18-24 hours, cell lysates are prepared (2× Cell lysis buffer:100 mM Tris, pH 8, 300 mM NaCl, 2% NP40, 1% Na deoxycholate, 0.04% SDS, 2 mM EDTA) and mixed thoroughly and incubated on ice. The protein concentration is quantified using BCA kit. […] The gel was then transferred onto a nitrocellulose membrane. […] GAPDH protein was used as an internal control.
On the technique in general: Immunoblotting shows a protein as a band on a membrane.

In a further series the test system is MCF7. Put plainly: Breast Cancer Cell Proliferation Assay (MCF-7). The class given is cell-based. Conditions: Homo sapiens, 120 h; MCF7 cells, 5 days of compound exposure, Cell Titer-Glo. As for the experimental part:
Breast Cancer Cell Proliferation Assay (MCF-7)
MCF7 was expanded and maintained in the medium (Phenol red free DMEM/F12 (Hyclone SH30272.01) NEAA (Gibco11140-050) Na-pyruvate (Gibco 11360-070) and Re-stripped Charcoal stripped FBS (Gemini 100-119)). The cells were adjusted to a concentration of 3,000 cells per mL in the above media, and the cells were incubated (37° C., 5% CO2). The following day a 10 point, serial dilution of compounds was added to the cells at a final concentration ranging from 10-0.000005 μM for test compounds (17β-estradiol was used as a control). Additional cells were plated in 30 wells to serve as the day 1 (pretreatment) comparison. After 5 days of compound exposure, Cell Titer-Glo reagent was added to the cells and the relative luminescence units (RLUs) of each well was determined. Cell Titer-Glo was also added to 32 μL of medium without cells to obtain a background value. The plates were allowed to incubate at room temperature for 10 minutes to stabilize luminescent signal and the luminescence signal was recorded with EnSpire. The relative increase in cell number of each sample is determined as follows: (RLU sample-RLU background/RLU estrogen only treated cells-RLU background)×100=% inhibition.

For the compound `C[C@@H]1Cc2c([nH]c3ccccc23)[C@@H](c2c(F)cc(/C=C/C(=O)O)cc2F)N1CC(C)(C)F` [AZD9496, (E)-3-(3,5-Difluoro-4-((1R,3R)2-(2-fluoro-2-methylpropyl)-3-methyl-2,3,4,9-tetrahydro-1H-pyrido[3,4b]indol-1-yl)phenyl)acrylic acid, reference compound], in series [1] (IV, 3.0 mg/kg), the area under the curve AUC(0-inf) (usually the area under the concentration-time curve extrapolated to infinity) is 72 µM·h; the clearance – broadly, the rate of elimination divided by the concentration – came to 1.6 mL/min/kg; the half-life (commonly the time needed for the level to fall by half in the phase considered) is 7.8 h; the Vd was determined as 0.8 L/kg. Moreover, in series [1], the bioavailability worked out at 74%. Besides, in series [1] (PO, 10.0 mg/kg), the AUC(0-inf) turned out to be 179 µM·h; the peak concentration (Cmax) (as a rule, the peak of the concentration-time curve) was 16.1 µM; the Tmax (as a rule, the time from dosing to the highest level) was determined as 4 h; the half-life was 6.4 h. Besides, the ERα % degradation entry on ERα was “A (A = ERα % degradation ≥80%)”. For the same compound, the IC50 (usually the concentration at which inhibition is half-maximal) in the series with MCF7 was ≤ 25 nM.

As to `C[C@@H]1Cc2c([nH]c3ccccc23)[C@@H](c2c(F)cc(/C=C/C(=O)O)cc2F)N1[C@H]1CCOC1` [Example 8A, (E)-3-(3,5-Difluoro-4-((1R,3R)-3-methyl-2-((S)-tetrahydrofuran-3-yl)-2,3,4,9-tetrahydro-1H-pyrido[3,4-b]indol-1-yl)phenyl)acrylic acid], in series [1] (IV, 3.0 mg/kg), the AUC(0-inf) was found to be 22 µM·h, the clearance turned out to be 5.2 mL/min/kg, the half-life was 3.2 h and the Vd is 0.6 L/kg. In addition, the bioavailability in series [1] is 109%. In addition, in series [1] (PO, 10.0 mg/kg), the area under the curve AUC(0-inf) is 80 µM·h, the maximum concentration (Cmax) amounted to 24.5 µM, the Tmax was 0.5 h and the half-life is 2.1 h. Also, on ERα, the ERα % degradation entry was “A (A = ERα % degradation ≥80%)”. Also, the half-maximal inhibitory concentration (IC50) in the series with MCF7 was 25 to 250 nM.

Turning to `C[C@@H]1Cc2c([nH]c3ccc(F)cc23)[C@@H](c2c(F)cc(/C=C/C(=O)O)cc2F)N1CC(C)(C)F` [Example 21A, (E)-3-(3,5-Difluoro-4-((1R,3R)-6-fluoro-2-(2-fluoro-2-methylpropyl)-3-methyl-2,3,4,9-tetrahydro-1H-pyrido[3,4-b]indol-1-yl)phenyl)acrylic acid], the melting point (commonly the temperature, or range, at which the solid turns liquid) was 128 to 130 °C. The concentration for half-maximal inhibition (IC50) in the series with MCF7 was ≤ 25 nM.

`C[C@@H]1Cc2c([nH]c3ccccc23)[C@@H](c2c(F)cc(/C=C/C(=O)O)cc2F)N1[C@@H]1CCOC1` [Example 8B, (E)-3-(3,5-Difluoro-4-((1R,3R)-3-methyl-2-((R)-tetrahydrofuran-3-yl)-2,3,4,9-tetrahydro-1H-pyrido[3,4-b]indol-1-yl)phenyl)acrylic acid]: the ERα % degradation result at ERα was “B (B = ERα % degradation <80%)”. The IC50 in the series with MCF7 is 25 to 250 nM.

Take `C[C@@H]1Cc2c([nH]c3ccccc23)[C@@H](c2c(F)cc(/C=C/C(=O)O)cc2F)N1CC12CC(C1)C2` [Example 5A, (E)-3-(4-((1R,3R)-2-(Bicyclo[1.1.1]pentan-1-ylmethyl)-3-methyl-2,3,4,9-tetrahydro-1H-pyrido[3,4-b]indol-1-yl)-3,5-difluorophenyl)acrylic acid]: in series [1] (IV, 3.0 mg/kg), the area under the curve AUC(0-inf) is 67 µM·h, the clearance turned out to be 1.7 mL/min/kg, the half-life was 7.7 h and the Vd came to 1 L/kg. The bioavailability in series [1] was 82%. Further, in series [1] (PO, 10.0 mg/kg), the AUC(0-inf) worked out at 185 µM·h, the Cmax stood at 10.8 µM, the time to peak (Tmax) was found to be 2 h and the half-life was 8.5 h. Also, the ERα % degradation result on ERα is given as “A (A = ERα % degradation ≥80%)”. The IC50 in the series with MCF7 was ≤ 25 nM.

Turning to `C[C@@H]1Cc2c([nH]c3ccccc23)[C@@H](c2c(F)cc(/C=C/C(=O)O)cc2F)N1C12CC(C1)C2` [Example 11A, (E)-3-(4-((1R,3R)-2-(Bicyclo[1.1.1]pentan-1-yl)-3-methyl-2,3,4,9-tetrahydro-1H-pyrido[3,4-b]indol-1-yl)-3,5-difluorophenyl)acrylic acid], in series [1] (IV, 3.0 mg/kg), the AUC(0-inf) stood at 96 µM·h, the clearance is 1.2 mL/min/kg, the half-life is 4.2 h and the Vd came to 0.48 L/kg. Moreover, the bioavailability in series [1] was 88%. Moreover, in series [1] (PO, 10.0 mg/kg), the area under the curve AUC(0-inf) was determined as 283 µM·h, the Cmax came to 33 µM and the half-life was 3.5 h. Besides, the ERα % degradation result at ERα is recorded as “A (A = ERα % degradation ≥80%)”. Besides, in the series on MCF7, the IC50 is ≤ 25 nM.

Consider `C[C@@H]1Cc2c([nH]c3ccccc23)[C@@H](c2c(F)cc(/C=C/C(=O)O)cc2F)N1CC12CC(F)(C1)C2` [Example 14A, (E)-3-(3,5-Difluoro-4-((1R,3R)-2-((3-fluorobicyclo[1.1.1]pentan-1-yl)methyl)-3-methyl-2,3,4,9-tetrahydro-H-pyrido[3,4-b]indol-1-yl)phenyl)acrylic acid], for which the ERα % degradation entry on ERα is listed as “B (B = ERα % degradation <80%)”. The compound further returned an IC50 with MCF7 of 25 to 250 nM.

For the compound `C[C@]12CC[C@@H]3c4ccc(O)cc4C[C@@H](CCCCCCCCC[S+]([O-])CCCC(F)(F)C(F)(F)F)[C@H]3[C@@H]1CC[C@@H]2O` (stereo partly drawn) [fulvestrant, reference compound], on ERα, the ERα % degradation result was “A (A = ERα % degradation ≥80%)”. In the series on MCF7, the half-maximal inhibitory concentration (IC50) was ≤ 25 nM.
